Reference: US20150337013A1, “NOVEL ANTIBACTERIAL AGENTS FOR THE TREATMENT OF GRAM POSITIVE INFECTIONS” (priority 2008, published 2015)
Read-outs that look alike come from different tables or passages of the source.

Assays:
[1] = system: Enterococcus faecalis EFS.201 (ATCC 49452); type: cell-based
Procedure: (§1) Compounds according to Formula I were tested for antimicrobial activity against a panel of organisms. Aerobic organisms, Staphylococcus aureus, Enterococcus faecalis and E. faecium, were tested by broth microdilution according to Clinical and Laboratory Standards Institute (CLSI) document M7-A7 (Clinical and Laboratory Standards Institute. Methods for Dilution Antimicrobial Susceptibility Tests for Bacteria that Grow Aerobically; Approved Standard—Seventh Edition. CLSI document M7-A7 [ISBN 1-56238-587-9]. Clinical and Laboratory Standards Institute, 940 West Valley Road, Suite 1400, Wayne, Pa. 19087-1898 USA, 2006) with modifications as described below. Mueller Hinton Broth (MHBc) was supplemented with 50 mg/L calcium (equivalent to human physiological levels of calcium) and assay plates were incubated 18-20 hours at 37° C. with aeration (200 rpm).
(§2) In all cases the final concentration of dimethyl sulfoxide incubated with cells is less than or equal to 1%. For minimum inhibitory concentration (MIC) calculations, 2-fold dilutions of compounds were added to wells of a microtiter plate containing 5×10^5 bacteria in a final volume of 100 μL of media. Following incubation, (18-20 hours at 37° C. with aeration at 200 rpm) growth was confirmed visually by placing plates over a viewing apparatus (stand with a mirror underneath) and then the optical density (OD600) was measured using a SpectraMax 340PC^384 plate reader. Growth was defined as turbidity that could be detected with the naked eye or achieving minimum OD600of 0.1. MIC values (in μg/mL) were defined as the lowest concentration producing no visible turbidity.

[2] = system: Enterococcus faecalis EFS.312, Daptomycin resistant mutant (EFA); type: cell-based; details: MHBc with 50 mg/L calcium, 18-20 hours at 37° C.
Procedure: as §1, §2

[3] = system: Enterococcus faecium EFM.14 (ATCC 6569); type: cell-based
Procedure: as §1, §2

[4] = system: Enterococcus faecium EFM.384, Daptomycin resistant mutant (14-A); type: cell-based; details: MHBc with 50 mg/L calcium, 18-20 hours at 37° C.
Procedure: as §1, §2

[5] = system: Staphylococcus aureus SAU.278, Daptomycin resistant mutant (D10); type: cell-based; details: MHBc with 50 mg/L calcium, 18-20 hours at 37° C.
Procedure: as §1, §2

[6] = system: Staphylococcus aureus SAU.399 (ATCC 43300), Methicillin and Oxacillin Resistant; type: cell-based
Procedure: as §1, §2

[7] = system: Staphylococcus aureus SAU.42 (ATCC 29213); type: cell-based
Procedure: as §1, §2

[8] = MHBc with 50 mg/L calcium, 18-20 hours at 37° C.

SMILES | Efs201 MIC [1, 8] | Efs312 MIC [2] | Efm14 MIC [3, 8] | Efm384 MIC [4] | Sa278 MIC [5] | Sa399 MIC [6, 8] | Sa42 MIC [7, 8] | C. diff MIC90 (Clostridium difficile) | Efs201 MIC ([1]; ATCC 49452) | Efm14 MIC ([3]; ATCC 6569) | Sa399 MIC ([6]; ATCC 43300) | Sa42 MIC ([7]; ATCC 29213)
CCCCCCCOc1ccc(-c2ccc(C(=O)N[C@@H](Cc3c[nH]c4ccccc34)C(=O)N[C@H](CC(N)=O)C(=O)N[C@@H](CC(=O)O)C(=O)N[C@@H]3C(=O)NCC(=O)N[C@@H](CCCN)C(=O)N[C@@H](CC(=O)O)C(=O)N[C@H](C)C(=O)N[C@@H](CC(=O)O)C(=O)NCC(=O)N[C@H](CO)C(=O)N[C@@H]([C@H](C)CC(=O)O)C(=O)N[C@@H](CC(=O)c4ccccc4N)C(=O)O[C@@H]3C)cc2)cc1 [Compound 63] | 0.5 mg/L | 4 mg/L | 1 mg/L | 1 mg/L | 0.25 mg/L | 0.25 mg/L | 0.25 mg/L | 2 mg/L |  |  |  | 
CCCCCC1CCC(NC(=O)N[C@@H](Cc2c[nH]c3ccccc23)C(=O)N[C@H](CC(N)=O)C(=O)N[C@@H](CC(=O)O)C(=O)N[C@@H]2C(=O)NCC(=O)N[C@@H](CCCN)C(=O)N[C@@H](CC(=O)O)C(=O)N[C@H](C)C(=O)N[C@@H](CC(=O)O)C(=O)NCC(=O)N[C@H](CO)C(=O)N[C@@H]([C@H](C)CC(=O)O)C(=O)N[C@@H](CC(=O)c3ccccc3N)C(=O)O[C@@H]2C)CC1 (stereo partly drawn) [Compound 17] | 1 mg/L | >32 mg/L | 1 mg/L | 16 mg/L | 0.25 mg/L | 0.25 mg/L | 0.25 mg/L | 1 mg/L |  |  |  | 
CCCCc1ccc(CC(=O)N[C@@H](Cc2c[nH]c3ccccc23)C(=O)N[C@H](CC(N)=O)C(=O)N[C@@H](CC(=O)O)C(=O)N[C@@H]2C(=O)NCC(=O)N[C@@H](CCCN)C(=O)N[C@@H](CC(=O)O)C(=O)N[C@H](C)C(=O)N[C@@H](CC(=O)O)C(=O)NCC(=O)N[C@H](CO)C(=O)N[C@@H]([C@H](C)CC(=O)O)C(=O)N[C@@H](CC(=O)c3ccccc3N)C(=O)O[C@@H]2C)cc1 [Compound 44] |  | >32 mg/L |  | >32 mg/L | 4 mg/L |  |  | 8.00 mg/L | 8 mg/L | 16 mg/L | 4 mg/L | 4 mg/L
CCCCCCCCCC(C)NC(=O)N[C@@H](Cc1c[nH]c2ccccc12)C(=O)N[C@H](CC(N)=O)C(=O)N[C@@H](CC(=O)O)C(=O)N[C@@H]1C(=O)NCC(=O)N[C@@H](CCCN)C(=O)N[C@@H](CC(=O)O)C(=O)N[C@H](C)C(=O)N[C@@H](CC(=O)O)C(=O)NCC(=O)N[C@H](CO)C(=O)N[C@@H]([C@H](C)CC(=O)O)C(=O)N[C@@H](CC(=O)c2ccccc2N)C(=O)O[C@@H]1C (single isomer, unassigned) [14 isomer II] |  | 16 mg/L |  | 8 mg/L | 1 mg/L |  |  | 2 mg/L | 0.5 mg/L | 0.25 mg/L | 0.25 mg/L | 0.25 mg/L
CCCCCOc1ccc(/C=C/C(=O)N[C@@H](Cc2c[nH]c3ccccc23)C(=O)N[C@H](CC(N)=O)C(=O)N[C@@H](CC(=O)O)C(=O)N[C@@H]2C(=O)NCC(=O)N[C@@H](CCCN)C(=O)N[C@@H](CC(=O)O)C(=O)N[C@H](C)C(=O)N[C@@H](CC(=O)O)C(=O)NCC(=O)N[C@H](CO)C(=O)N[C@@H]([C@H](C)CC(=O)O)C(=O)N[C@@H](CC(=O)c3ccccc3N)C(=O)O[C@@H]2C)cc1 [Compound 41] | 4 mg/L | >32 mg/L | 8 mg/L | >32 mg/L | 2 mg/L | 2 mg/L | 4 mg/L | 4 mg/L |  |  |  | 
CCCCCCCCCCCCCCCOc1ccc(C(=O)N[C@@H](Cc2c[nH]c3ccccc23)C(=O)N[C@H](CC(N)=O)C(=O)N[C@@H](CC(=O)O)C(=O)N[C@@H]2C(=O)NCC(=O)N[C@@H](CCCN)C(=O)N[C@@H](CC(=O)O)C(=O)N[C@H](C)C(=O)N[C@@H](CC(=O)O)C(=O)NCC(=O)N[C@H](CO)C(=O)N[C@@H]([C@H](C)CC(=O)O)C(=O)N[C@@H](CC(=O)c3ccccc3N)C(=O)O[C@@H]2C)cc1 [Compound 40] | 4.0 mg/L | 8 mg/L | 32.0 mg/L | 32 mg/L | 16.00 mg/L | 4.000 mg/L | 4.00 mg/L | 32 mg/L |  |  |  | 
